PubChem BioAssay AID1963439 (Molecular Pharmacology Branch, DTP, NCI, 2024)
Values joined by “and” are separate entries in the source; they are usually repeats but may differ in a detail not shown here. Equal values may be shown once.

Tested on: NCI-H196 complex spheroids with HUVEC/MSC, growth % T/C
Test: Anticancer human tumor NCI-H196 cell line growth inhibition [Asc];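 note: spheroids exposed to compound for 7 days before measurement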;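 for viability, T/C: 100% = DMSO vehicle control wells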
Conditions: for viability, T/C: stronger effect = lower value
Outline: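 Concentration series start at each agent's clinical Cmax, or at 10 microM when none is established, and drop in half-log steps; agents are applied alone or together to complex spheroids built with HUVEC and hMSC.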

[1] = curve of first compound, second compound 0.1 µM
[2] = curve of first compound, second compound 0.316 µM
[3] = curve of first compound, second compound 1 µM
[4] = curve of first compound, second compound 3.16 µM
[5] = curve of first compound, second compound 10 µM
[6] = second compound 0.1 µM, first compound 0.00316 µM
[7] = second compound 0.1 µM, first compound 0.01 µM
[8] = second compound 0.1 µM, first compound 0.0316 µM
[9] = second compound 0.1 µM, first compound 0.1 µM
[10] = second compound 0.316 µM, first compound 0.00316 µM
[11] = second compound 0.316 µM, first compound 0.01 µM
[12] = second compound 0.316 µM, first compound 0.0316 µM
[13] = second compound 0.316 µM, first compound 0.1 µM
[14] = second compound 1 µM, first compound 0.00316 µM
[15] = second compound 1 µM, first compound 0.01 µM
[16] = second compound 1 µM, first compound 0.0316 µM
[17] = second compound 1 µM, first compound 0.1 µM
[18] = second compound 3.16 µM, first compound 0.00316 µM
[19] = second compound 3.16 µM, first compound 0.01 µM
[20] = second compound 3.16 µM, first compound 0.0316 µM
[21] = second compound 3.16 µM, first compound 0.1 µM
[22] = second compound 10 µM, first compound 0.00316 µM
[23] = second compound 10 µM, first compound 0.01 µM
[24] = second compound 10 µM, first compound 0.0316 µM
[25] = second compound 10 µM, first compound 0.1 µM
[26] = second compound 0.1 µM, first compound 0.316 µM
[27] = second compound 0.1 µM, first compound 1 µM
[28] = second compound 0.316 µM, first compound 0.316 µM
[29] = second compound 0.316 µM, first compound 1 µM
[30] = second compound 1 µM, first compound 0.316 µM
[31] = second compound 1 µM, first compound 1 µM
[32] = second compound 3.16 µM, first compound 0.316 µM
[33] = second compound 3.16 µM, first compound 1 µM
[34] = second compound 10 µM, first compound 0.316 µM
[35] = second compound 10 µM, first compound 1 µM

SMILES	IC50 [1] [µM]	IC50 [2] [µM]	IC50 [3] [µM]	IC50 [4] [µM]	IC50 [5] [µM]	viability, T/C [6] [%]	viability, T/C [7] [%]	viability, T/C [8] [%]	viability, T/C [9] [%]	viability, T/C [10] [%]	viability, T/C [11] [%]	viability, T/C [12] [%]	viability, T/C [13] [%]	viability, T/C [14] [%]	viability, T/C [15] [%]	viability, T/C [16] [%]	viability, T/C [17] [%]	viability, T/C [18] [%]	viability, T/C [19] [%]	viability, T/C [20] [%]	further results
Cn1ncnc1[C@H]1c2n[nH]c(=O)c3cc(F)cc(c23)N[C@@H]1c1ccc(F)cc1 + Cc1c(S(C)(=O)=O)c(-c2cc(F)cc(N3CCN(c4ccc(NS(=O)(=O)c5ccc(NC(CCN6CCC(C(=O)OCCCP(=O)(O)O)CC6)CSc6ccccc6)c(S(=O)(=O)C(F)(F)F)c5)cc4)CC3)c2)c(-c2ccc(Cl)cc2)n1C(C)C	> 0.1	> 0.1	> 0.1	> 0.1	> 0.1	102	101	94.8	98.4	107	95.2	89	93.4	94.5	95.7	86.2	94	78.5	79.1	80.1	viability, T/C (second compound 0.1 µM, first compound 0.000316 µM): 107%; viability, T/C (second compound 0.1 µM, first compound 0.001 µM): 101%; viability, T/C (second compound 0.316 µM, first compound 0.000316 µM): 102%; viability, T/C (second compound 0.316 µM, first compound 0.001 µM): 105%; viability, T/C (second compound 1 µM, first compound 0.000316 µM): 97%; viability, T/C (second compound 1 µM, first compound 0.001 µM): 94.9%; viability, T/C (second compound 3.16 µM, first compound 0.000316 µM): 93.1%; viability, T/C (second compound 3.16 µM, first compound 0.001 µM): 84.4%; viability, T/C [21]: 80.1%; viability, T/C (second compound 10 µM, first compound 0.000316 µM): 77.2%; viability, T/C (second compound 10 µM, first compound 0.001 µM): 85%; viability, T/C [22]: 78.7%; viability, T/C [23]: 73.9%; viability, T/C [24]: 62.8%; viability, T/C [25]: 66.8%
CCN1CCN(Cc2ccc(Nc3ncc(F)c(-c4cc(F)c5nc(C)n(C(C)C)c5c4)n3)nc2)CC1 + Cc1c(S(C)(=O)=O)c(-c2cc(F)cc(N3CCN(c4ccc(NS(=O)(=O)c5ccc(NC(CCN6CCC(C(=O)OCCCP(=O)(O)O)CC6)CSc6ccccc6)c(S(=O)(=O)C(F)(F)F)c5)cc4)CC3)c2)c(-c2ccc(Cl)cc2)n1C(C)C	> 1	> 1	> 1	> 1	> 1	101	95.4	101	104	94.1	102	92.6	104	92.2	91.7	92.2	102	90.2	88.8	80.1	viability, T/C [26]: 102%; viability, T/C [27]: 109%; viability, T/C [28]: 104%; viability, T/C [29]: 113%; viability, T/C [30]: 104%; viability, T/C [31]: 105%; viability, T/C [21]: 85.3%; viability, T/C [32]: 93.1%; viability, T/C [33]: 86%; viability, T/C [22]: 77.2%; viability, T/C [23]: 76.2%; viability, T/C [24]: 81.4%; viability, T/C [25]: 83.6%; viability, T/C [34]: 86.2%; viability, T/C [35]: 80.8%
NC(=O)C(=Cn1cnc(-c2cc(C(F)(F)F)cc(C(F)(F)F)c2)n1)c1cncnc1	–	–	–	–	–	–	–	–	–	–	–	–	–	–	–	–	–	–	–	–	viability, T/C (compound 0.000949 µM): 112% and 103% and 99.9%; viability, T/C (compound 0.003 µM): 101% and 99.4% and 88.3%; viability, T/C (compound 0.00949 µM): 79% and 71.1% and 58.7%; viability, T/C (compound 0.03 µM): 48.9% and 49.5% and 27.4%; viability, T/C (compound 0.0949 µM): 9.22% and 11.1% and 7.62%; viability, T/C (compound 0.3 µM): 6.01% and 7.26% and 5.35%; IC50 (curve of compound): 0.0251 µM and 0.0239 µM and 0.0131 µM
O=C(c1ccc(F)c(F)c1Nc1ccc(I)cc1F)N1CC(O)([C@@H]2CCCCN2)C1 + CNC(C)C(=O)NC1CN(S(=O)(=O)c2cccc(S(=O)(=O)N3CCC4CCC(C(=O)NC(c5ccccc5)c5ccccc5)N4C(=O)C(NC(=O)C(C)NC)C3)c2)CCC2CCC(C(=O)NC(c3ccccc3)c3ccccc3)N2C1=O	< 0.00316	< 0.00316	< 0.00316	–	–	4.86	5.49	4.59	2.13	7.23	3.09	3.2	2.51	3.63	3.54	4.37	2.53	–	–	–	IC50 (curve of first compound, second compound 0.01 µM): < 0.00316 µM; IC50 (curve of first compound, second compound 0.0316 µM): < 0.00316 µM; viability, T/C (second compound 0.01 µM, first compound 0.00316 µM): 8.04%; viability, T/C (second compound 0.01 µM, first compound 0.01 µM): 5.36%; viability, T/C (second compound 0.01 µM, first compound 0.0316 µM): 5.61%; viability, T/C (second compound 0.01 µM, first compound 0.1 µM): 8.2%; viability, T/C (second compound 0.01 µM, first compound 0.316 µM): 12.4%; viability, T/C (second compound 0.01 µM, first compound 1 µM): 17.3%; viability, T/C (second compound 0.0316 µM, first compound 0.00316 µM): 3.55%; viability, T/C (second compound 0.0316 µM, first compound 0.01 µM): 6.82%; viability, T/C (second compound 0.0316 µM, first compound 0.0316 µM): 5.25%; viability, T/C (second compound 0.0316 µM, first compound 0.1 µM): 3.88%; viability, T/C (second compound 0.0316 µM, first compound 0.316 µM): 6.05%; viability, T/C (second compound 0.0316 µM, first compound 1 µM): 7.48%; viability, T/C [26]: 3.06%; viability, T/C [27]: 4.14%; viability, T/C [28]: 3.39%; viability, T/C [29]: 3.61%; viability, T/C [30]: 2.07%; viability, T/C [31]: 3.08%
CNC(C)C(=O)NC1CN(S(=O)(=O)c2cccc(S(=O)(=O)N3CCC4CCC(C(=O)NC(c5ccccc5)c5ccccc5)N4C(=O)C(NC(=O)C(C)NC)C3)c2)CCC2CCC(C(=O)NC(c3ccccc3)c3ccccc3)N2C1=O (configuration not stated) + Cc1c(S(C)(=O)=O)c(-c2cc(F)cc(N3CCN(c4ccc(NS(=O)(=O)c5ccc(NC(CCN6CCC(C(=O)OCCCP(=O)(O)O)CC6)CSc6ccccc6)c(S(=O)(=O)C(F)(F)F)c5)cc4)CC3)c2)c(-c2ccc(Cl)cc2)n1C(C)C	< 0.00316	< 0.00316	< 0.00316	< 0.00316	< 0.00316	34.8	14.2	3.61	1.15	34.8	13.5	2.75	2.2	32.3	10.1	3.17	2.28	31.1	11	3.34	viability, T/C [26]: 1.37%; viability, T/C [27]: 1.37%; viability, T/C [28]: 0.94%; viability, T/C [29]: 0.56%; viability, T/C [30]: 1.22%; viability, T/C [31]: 0.43%; viability, T/C [21]: 0.68%; viability, T/C [32]: 0.36%; viability, T/C [33]: 0.39%; viability, T/C [22]: 28.9%; viability, T/C [23]: 6.64%; viability, T/C [24]: 2.27%; viability, T/C [25]: 0.74%; viability, T/C [34]: 0.42%; viability, T/C [35]: 0.45%
